Measured values as given in BindingDB's records for doi:10.7270/Q2JM286J (Burnham Center For Chemical Genomics, 2012).
pIC50: −log10 of the molar value.

These compounds were tested against Prothrombin (Bos taurus, UniProt P00735) (assay: thrombin protease inhibitors – biochemical, fluorescence polarization, uHTS hits, dose response (AID 602369)).

Row | Compound | pIC50
1 | Cc1[nH]c2ccccc2c1/C=C1\N=C(c2ccccc2)OC1=O [(4Z)-4-[(2-methyl-1H-indol-3-yl)methylidene]-2-phenyl-5-oxazolone] | 5.14
2 | O=C1C=CC([N+](=O)[O-])=CC1C=NN=C1NS(=O)(=O)c2ccccc21 (stereo not given) | 4.43
3 | CCN(CC)CCOC(=O)c1ccc(N=CC(C#N)c2nc(-c3ccc4c(c3)OCO4)cs2)cc1 (stereo not given) [2-(diethylamino)ethyl 4-[[(Z)-2-[4-(1,3-benzodioxol-5-yl)-1,3-thiazol-2-yl]-2-cyano-ethenyl]amino]benzoate] | 4.25
4 | CC(c1sc(S)nc1O)c1sc(S)nc1O [5-[1-(4-oxidanylidene-2-sulfanylidene-1,3-thiazolidin-5-yl)ethyl]-2-sulfanylidene-1,3-thiazolidin-4-one] | 4.28
5 | Cc1cc(=O)[nH]c(N=NCc2c(O)n(-c3ccccc3)c(=O)c3ccccc23)n1 [SMR000221270] | 4.43
6 | O=c1c(Cl)c(N=NCc2ccc(Br)cc2)cnn1-c1ccccc1 | < 4.00
7 | COC1=CC(=Cc2c(C)[nH]n(-c3cccc(Br)c3)c2=O)C=C(OC)C1=O | 4.41
8 | O=C(N/N=C/C1C=C([N+](=O)[O-])C=CC1=O)c1cc(-c2ccccc2)nc2ccccc12 (stereo not given) [N'-[(E)-(3-nitro-6-oxo-1-cyclohexa-2,4-dienylidene)methyl]-2-phenyl-4-quinolinecarbohydrazide] | 4.97
9 | O=C(N/N=C/C1C=C(Cl)C=C([N+](=O)[O-])C1=O)c1ccccc1NS(=O)(=O)c1cccs1 (stereo not given) [SMR000364876] | 4.07
10 | CCOC(=O)C1C(=O)C(=Cc2ccc(-c3ccccc3C(=O)O)o2)SC1=Nc1ccc(OC)cc1 (stereo not given) | 4.88
11 | COC1=CC([N+](=O)[O-])=CC(/C=N/NC(=O)c2cc(-c3ccccc3)nc3ccccc23)C1=O (stereo not given) | 4.12
12 | COC1=CC([N+](=O)[O-])=CC(/C=N/NC(=O)c2cncc(Br)c2)C1=O (stereo not given) [5-bromo-N'-[(E)-(5-methoxy-3-nitro-6-oxo-1-cyclohexa-2,4-dienylidene)methyl]-3-pyridinecarbohydrazide] | 4.41
13 | CCN(CC)CCOC(=O)c1ccc(N=CC(C#N)c2nc(-c3ccc(OC)c(OC)c3)cs2)cc1 (stereo not given) [SMR000434079] | 4.54
14 | COc1cc(C=CC(=O)C2C(=O)NC(=O)N(CCc3ccccc3)C2=O)ccc1O (stereo not given) [SMR000221203] | 4.39
15 | CSc1nsc(CC=Nc2ccc(C(=O)O)cc2)c1C#N [4-({2-[4-cyano-3-(methylsulfanyl)-5-isothiazolyl]vinyl}amino)benzenecarboxylic acid] | 4.56
16 | O=C1N=C(Nc2ccc(Cl)cc2Cl)SC1=Cc1c[nH]c2ccccc12 | 4.42
17 | CC(=O)C1C(=O)OC(=CC=Cc2ccccc2)C1=O (stereo not given) [3-acetyl-5-cinnamylidene-4-hydroxy-2-furanone] | 4.30
18 | Oc1csc(=S)n1N=Cc1ccc(Cl)s1 [3-[(5-chlorothiophen-2-yl)methylideneamino]-2-sulfanylidene-1,3-thiazolidin-4-one] | 4.57

Row | Compound | pIC50
19 | O=[N+]([O-])c1ccc(N=NCc2ccc[nH]2)cc1 [MLS000595102] | 5.01
20 | COc1cc(C=c2[nH]c3n(c2=O)CCCCC=3)ccc1O [SMR000149996] | 4.53
21 | CC1(C)CC(=O)C(=CNCC2CCN(C(=O)Cc3ccccc3)CC2)C(=O)C1 [5,5-dimethyl-2-[[[1-(2-phenylacetyl)piperidin-4-yl]methylamino]methylidene]cyclohexane-1,3-dione] | < 4.00
22 | CC[n+]1c(CC=Nc2ccccc2)oc2ccc(OC)cc21 | 4.25
23 | CC1=NC(=O)NC(c2ccc(N3CCOCC3)cc2)C1C(=O)c1ccccc1 (stereo not given) [5-benzoyl-6-methyl-4-[4-(4-morpholinyl)phenyl]-3,4-dihydro-1H-pyrimidin-2-one] | 4.81
24 | C=c1[nH]c2ccc(C)cc2c1=Cc1c(N)n2oc(C)cc2nc1=O [MLS000730959] | 4.49
25 | CN(CCO)c1ccc(CN=Nc2ccc([N+](=O)[O-])cc2S(=O)(=O)Nc2ccccc2C(=O)O)cc1 | 4.44
26 | C=c1[nH]n(-c2nnc(C)c(=O)[nH]2)c(=O)c1=Cc1ccc(N(CC)CC)cc1 [3-{4-[1-(4-Diethylamino-phenyl)-meth-(Z)-ylidene]-3-methyl-5-oxo-4,5-dihydro-pyrazol-1-yl}-6-methyl-4H -[1,2,4]triazin-5-one] | 4.30
27 | C=C(C=C(C)c1sc(S)nc1O)c1sc(S)nc1O [MLS000723803] | 4.06
28 | NS(=O)(=O)c1ccc(N=CCC(=O)c2ccc3ccccc3c2)cc1 [4-(3-Naphthalen-2-yl-3-oxo-propenylamino)-benzenesulfonamide] | 4.25
29 | O=[N+]([O-])c1ccc(N=NCc2cccn2-c2ccccc2)nc1 [SMR000161089] | 4.53
30 | O=[N+]([O-])c1ccc(N=NCc2c[nH]c3ccccc23)cc1 [MLS000573812] | 5.69
31 | O=C1c2ccccc2SC1/C=N/c1cc([N+](=O)[O-])ccc1O (stereo not given) [(2Z)-2-[[(5-nitro-2-oxidanyl-phenyl)amino]methylidene]-1-benzothiophen-3-one] | 5.59
32 | COc1cc2c3c(c1)C(C)=CC(C)(C)N3C(=O)C2=O [MLS000688351] | 4.94
33 | CCCCCCCCCCCC1N=C(N)N=C(CCCO)C1C(=O)OC (stereo not given) [SMR001565729] | 4.37
34 | C=CCN1C(=O)C(/C=N/c2cccc([N+](=O)[O-])c2)C(=O)N(CCCC)C1=O (stereo not given) [MLS000543529] | 4.37
35 | Cc1[nH]n(-c2ccccc2)c(=O)c1C=C1NC(=S)NC1=O [5-methyl-4-[(Z)-(5-oxo-2-sulfanylideneimidazolidin-4-ylidene)methyl]-2-phenyl-4H-pyrazol-3-one] | 4.28
